# Inconclusive results and toxic doses are left out.
# Tested on: BDF1 mice, P388 leukemia ip, median survival T/C
# Test: NCI In Vivo Anticancer Drug Screen. Data for tumor model P388 Leukemia (intraperitoneal) in B6D2F1 (BDF1) mice
# Details: endpoint: median survival time, higher = longer survival
# Summary of the method: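 Steps: implant the tumour, treat one group with compound and another with vehicle, record survival, then divide treated by control.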
# [1] = dose: 6.25 mg/kg/injection, schedule: Q01DX009 (ip), vehicle: saline
# [2] = dose: 12.5 mg/kg/injection, schedule: Q01DX009 (ip), vehicle: saline
# [3] = dose: 25.0 mg/kg/injection, schedule: Q01DX009 (ip), vehicle: saline
# [4] = dose: 25.0 mg/kg/injection, schedule: Q04DX003 (ip), vehicle: saline with Tween-80
# [5] = dose: 50.0 mg/kg/injection, schedule: Q04DX003 (ip), vehicle: saline with Tween-80
smiles,measurement,setting,value
Cc1c2c(O)c(O)c(O)cc2c[n+]2ccccc12,T/C,[1],100 % of control
same,T/C,[2],106 % of control
same,T/C,[3],123 % of control
CNC(=O)OCc1c(COC(=O)NC)c(-c2ccc(F)cc2)n2c1CCC2,T/C,"dose: 1.56 mg/kg/injection, schedule: Q01DX009 (ip), vehicle: Klucel (hydroxypropylcellulose) (HPC)",122 % of control
CCOC(=O)CC/C(=C/c1ccccc1)[N+](=O)[O-],T/C,[4],110 % of control
same,T/C,[5],106 % of control
same,T/C,"dose: 100.0 mg/kg/injection, schedule: Q04DX003 (ip), vehicle: saline with Tween-80",119 % of control
CCOP(=O)(NCCCOC)OCC,T/C,"dose: 3.5 mg/kg/injection, schedule: Q01DX009 (ip), vehicle: saline",105 % of control
same,T/C,"dose: 7.0 mg/kg/injection, schedule: Q01DX009 (ip), vehicle: saline",120 % of control
same,T/C,"dose: 9.0 mg/kg/injection, schedule: Q04DX003 (ip), vehicle: saline",122 % of control
same,T/C,"dose: 14.0 mg/kg/injection, schedule: Q01DX009 (ip), vehicle: saline",115 % of control
same,T/C,"dose: 14.0 mg/kg/injection, schedule: Q04DX003 (ip), vehicle: saline",104 % of control
same,T/C,"dose: 30.0 mg/kg/injection, schedule: Q01DX009 (ip), vehicle: saline",88 % of control
same,T/C,"dose: 45.0 mg/kg/injection, schedule: Q01DX009 (ip), vehicle: saline",88 % of control
NS(=O)(=O)c1cc([N+](=O)[O-])ccc1Cl,T/C,"dose: 100.0 mg/kg/injection, schedule: Q04DX003 (ip), vehicle: Klucel (hydroxypropylcellulose) (HPC)",100 % of control
same,T/C,"dose: 200.0 mg/kg/injection, schedule: Q04DX003 (ip), vehicle: Klucel (hydroxypropylcellulose) (HPC)",108 % of control
CCc1cccc2c(NCCCCCCNc3c4ccccc4nc4c(CC)cccc34)c3ccccc3nc12,T/C,"dose: 0.31 mg/kg/injection, schedule: Q01DX009 (ip), vehicle: lactic acid",108 % of control
same,T/C,"dose: 0.62 mg/kg/injection, schedule: Q01DX009 (ip), vehicle: lactic acid",103 % of control
same,T/C,"dose: 5.0 mg/kg/injection, schedule: Q01DX009 (ip), vehicle: lactic acid",173 % of control
C[N+](C)(CC(=O)Nc1ccc(Cl)c(Cl)c1)CC(=O)c1ccc(Cl)cc1,T/C,"dose: 6.25 mg/kg/injection, schedule: Q04DX003 (ip), vehicle: saline",110 % of control
same,T/C,"dose: 12.5 mg/kg/injection, schedule: Q04DX003 (ip), vehicle: saline",95 % of control
same,T/C,"dose: 25.0 mg/kg/injection, schedule: Q04DX003 (ip), vehicle: saline",100 % of control
CCCCCCCCCCC(N)P(=O)(O)O (stereo not given),T/C,"dose: 12.5 mg/kg/injection, schedule: Q04DX003 (ip), vehicle: saline with Tween-80",92 % of control
same,T/C,[4],92 % of control
same,T/C,[5],92 % of control
CNC1C(O)C(NC)C2OC3(O)C(=O)CC(C)OC3OC2C1O (stereo not given),T/C,[1],112 % of control
same,T/C,[2],106 % of control
same,T/C,[3],97 % of control
same,T/C,"dose: 50.0 mg/kg/injection, schedule: Q01DX009 (ip), vehicle: saline",106 % of control
O=[N+]([O-])O.[Ag],T/C,"dose: 10.0 mg/kg/injection, schedule: Q01DX009 (ip), vehicle: saline with Tween-80",96 % of control
same,T/C,"dose: 40.0 mg/kg/injection, schedule: Q01DX009 (ip), vehicle: saline with Tween-80",92 % of control
same,T/C,"dose: 40.0 mg/kg/injection, schedule: Q04DX003 (ip), vehicle: saline with Tween-80",90 % of control
CN(C)c1ccc(-c2nc3c(=O)n(C)c(=O)n(C)c3nc2-c2ccc(N(C)C)cc2)cc1,T/C,"dose: 100.0 mg/kg/injection, schedule: Q04DX002 (ip), vehicle: saline with Tween-80",106 % of control
same,T/C,"dose: 200.0 mg/kg/injection, schedule: Q04DX002 (ip), vehicle: saline with Tween-80",111 % of control
same,T/C,"dose: 400.0 mg/kg/injection, schedule: Q04DX002 (ip), vehicle: saline with Tween-80",116 % of control
CCOC(=O)C1=C(C)NC(C)=C(C(=O)OCC)C1c1cccc([N+](=O)[O-])c1,T/C,"dose: 50.0 mg/kg/injection, schedule: Q01DX009 (ip), vehicle: Klucel (hydroxypropylcellulose) (HPC)",105 % of control
same,T/C,"dose: 100.0 mg/kg/injection, schedule: Q01DX009 (ip), vehicle: Klucel (hydroxypropylcellulose) (HPC)",100 % of control
same,T/C,"dose: 200.0 mg/kg/injection, schedule: Q01DX009 (ip), vehicle: Klucel (hydroxypropylcellulose) (HPC)",90 % of control
O=C(Nc1cccc(Cl)c1)C1CCCC1=Nc1cccc(Cl)c1 (stereo not given),T/C,"dose: 50.0 mg/kg/injection, schedule: Q01DX009 (ip), vehicle: saline with Tween-80",100 % of control
same,T/C,"dose: 100.0 mg/kg/injection, schedule: Q01DX009 (ip), vehicle: saline with Tween-80",106 % of control
[N-]=[N+]=CC(=O)OCC(N)C(=O)O (stereo not given),T/C,"dose: 100.0 mg/kg/injection, schedule: Q01DX009 (ip), vehicle: saline",110 % of control
same,T/C,"dose: 100.0 mg/kg/injection, schedule: Q04DX003 (ip), vehicle: saline",109 % of control
same,T/C,"dose: 200.0 mg/kg/injection, schedule: Q01DX009 (ip), vehicle: saline",110 % of control
same,T/C,"dose: 200.0 mg/kg/injection, schedule: Q04DX003 (ip), vehicle: saline",109 % of control
same,T/C,"dose: 400.0 mg/kg/injection, schedule: Q04DX003 (ip), vehicle: saline",118 % of control

# Reference: PubChem BioAssay AID328 (DTP/NCI, 2004)
